Assays:
CIC-1 ion channel = target: T1, CIC-1 ion channel (Rattus norvegicus, UniProt P35524); assay: Electrophysiological measurement of compound inhibition of CIC-1 in rat muscle (Gm in soleus fibres, three micro-electrodes); assay type: cell-based; details: Gm in individual fibres of whole rat soleus muscles, approx. 30° C., four increasing compound concentrations; read-out: Potency Range (EC50, inhibition of CIC-1 ion channel)
T1 construct: from tissue; host or cells: whole soleus muscle of 12-14 week old Wistar rats
T1 sequence (P35524 1-994): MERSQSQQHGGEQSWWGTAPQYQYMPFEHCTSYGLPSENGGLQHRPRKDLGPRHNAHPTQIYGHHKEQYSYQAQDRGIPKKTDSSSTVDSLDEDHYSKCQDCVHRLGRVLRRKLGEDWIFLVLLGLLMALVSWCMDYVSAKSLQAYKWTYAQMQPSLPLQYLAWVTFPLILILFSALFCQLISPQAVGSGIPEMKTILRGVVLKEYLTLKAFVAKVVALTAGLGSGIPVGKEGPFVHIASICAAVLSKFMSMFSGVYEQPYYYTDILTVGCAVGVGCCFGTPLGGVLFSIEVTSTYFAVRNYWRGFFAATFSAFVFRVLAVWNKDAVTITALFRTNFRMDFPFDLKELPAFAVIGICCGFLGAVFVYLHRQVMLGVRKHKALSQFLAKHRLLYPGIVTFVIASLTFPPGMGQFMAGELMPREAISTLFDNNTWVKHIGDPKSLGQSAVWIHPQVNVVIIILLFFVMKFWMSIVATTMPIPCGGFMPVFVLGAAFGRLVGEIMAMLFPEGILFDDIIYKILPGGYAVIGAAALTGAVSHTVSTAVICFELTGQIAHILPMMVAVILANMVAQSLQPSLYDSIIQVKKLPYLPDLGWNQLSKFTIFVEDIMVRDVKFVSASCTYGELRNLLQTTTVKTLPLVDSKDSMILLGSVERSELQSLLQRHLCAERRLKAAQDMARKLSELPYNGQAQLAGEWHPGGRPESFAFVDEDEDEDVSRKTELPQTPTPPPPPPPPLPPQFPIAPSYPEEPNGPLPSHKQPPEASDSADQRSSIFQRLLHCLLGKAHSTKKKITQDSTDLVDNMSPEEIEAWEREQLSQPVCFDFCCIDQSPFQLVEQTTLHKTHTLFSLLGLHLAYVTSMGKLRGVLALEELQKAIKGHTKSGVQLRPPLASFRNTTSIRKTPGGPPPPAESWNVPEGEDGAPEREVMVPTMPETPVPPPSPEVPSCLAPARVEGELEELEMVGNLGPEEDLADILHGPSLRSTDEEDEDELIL
In short: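 Membrane conductance (Gm) recorded by three micro-electrodes in soleus fibres of intact muscles from 12-14 week old Wistar rats, Krebs Ringer, ~30° C, pH ~7.4; 50 ms −30 nA pulses, Gm from cable-theory fit. Control Gm in 10 fibres, then four rising concentrations (5-10 fibres each); EC50 by sigmoidal fit.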

[1] = tested on: isolated rat soleus nerve-muscle preparations; assay: Measurement of force in an in vitro model: recovery of nerve-stimulated contractile force after tubocurarine; details: 40 min, after 40 mins of compound exposure, tubocurarine (115 nM) for 90 minutes, read-out: Point increase (%): percentage increase of initial force that was restored; for activation at 10 µM: 10 μM of test compound; for activation at 50 µM: 50 μM of test compound
In short: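 Isolated soleus nerve-muscle preparations from 4-5 week old rats, nerve-stimulated in Krebs Ringer at 30° C, 95% O2/5% CO2, pH ~7.4. Force reduced with 115 nM tubocurarine for 90 min, then compound added. Value is percentage-point increase in initial force restored after 40 min compound exposure.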

Row | SMILES | EC50 (CIC-1 ion channel) [µM] | activation at 10 µM [1] [%] | activation at 50 µM [1] [%]
1 | CN1CCCc2cc(Cl)c(F)c(C(=O)O)c21 [Compound A-40, 6-Chloro-7-fluoro-1-methyl-1,2,3,4-tetrahydroquinoline-8-carboxylic acid] | 0.2 to 2 | 39 | 
2 | O=C(O)c1c(Cl)c(F)cc2c1OCCCC2 [Compound A-56, 8-chloro-7-fluoro-2,3,4,5-tetrahydro-1-benzoxepine-9-carboxylic acid] | 2 to 10 | 31 | 
3 | O=C(O)c1c(Cl)c(F)cc2c1OCCC2 [Compound A-37, 7-Chloro-6-fluoro-3,4-dihydro-2H-1-benzopyran-8-carboxylic acid] | 2 to 10 |  | 48
4 | Cc1cc2c(c(C(=O)O)c1C)CCCC2 [Compound A-5, 2,3-dimethyl-5,6,7,8-tetrahydronaphthalene-1-carboxylic acid] | 10 to 20 |  | 43
5 | COc1c(Cl)cc2c(c1C(=O)O)CCCC2 [Compound A-8, 3-Chloro-2-methoxy-5,6,7,8-tetrahydronaphthalene-1-carboxylic acid] | 0.2 to 2 | 50 | 

Now from value to compound, other results behind:

Row | EC50 (CIC-1 ion channel) [µM] | SMILES | activation at 10 µM [1] [%] | activation at 50 µM [1] [%]
6 | 10 to 20 | O=C(O)c1c(F)c(F)cc2c1SCCC2 [Compound A-42, 6,7-difluoro-3,4-dihydro-2H-1-benzothiopyran-8-carboxylic acid] |  | 47
7 | 10 to 20 | O=C(O)c1cc(Cl)c(F)c2c1CCCC2 [Compound A-17, 3-Chloro-4-fluoro-5,6,7,8-tetrahydronaphthalene-1-carboxylic acid] |  | 41

From patent publication US20260199273A1, “Compounds for the Treatment of Neuromuscular Disorders” (NMD PHARMA A/S, priority 2022, published 2026)
